Patent US20230219925A1, “BENZO FIVE-MEMBERED NITROGEN HETEROCYCLIC COMPOUND AND APPLICATION THEREOF” (GUANGZHOU INSTITUTES OF BIOMEDICINE AND HEALTH CHINESE …, priority 2020, published 2023)
Read-outs that look alike come from different tables or passages of the source. Each block holds one molecule with its values, some of them ahead of it.

Tests used:
[1] = Pharmacokinetic evaluations in SD rats; type: in vivo; conditions: Sprague-Dawley, rat, plasma
Protocol: Experimental materials: the pharmacokinetic analyses were carried out by Shanghai Medicilon Corporation. Sprague-Dawley (SD) rats were provided by Shanghai Super-B&K Laboratory Animal Corp., Ltd.
The stock solution was orally administered to three SD rats at a dose of 25 mg/kg and administered to three SD rats through intravenous injection at a single dose of 5 mg/kg. Blood was collected from jugular veins before the oral administration and 0.25, 0.5, 1, 2, 4, 6, 8 and 24 hours after the oral administration. Blood was collected from jugular veins before the intravenous injection and 0.083, 0.25, 0.5, 1, 2, 4, 6, 8 and 24 hours after the intravenous injection. About 200 μL of the blood samples were collected into heparinized tubes and then immediately centrifuged at 8000 r/min for 6 minutes to obtain blood plasma. The obtained blood plasma was storaged at −80° C. until analysis.

22Rv1 xenograft = conditions: for TGI: five days a week for three weeks
Protocol: Experimental purpose: a xenograft mouse experiment was used for verifying inhibitory effects of the compounds of the present application on tumors in vivo.
Experimental methods: three-week-old male mice (strain: NOD/MrkBomTac-Prkdc^scid) were purchased from Beijing Vital River Laboratory Animal Technology Co., Ltd and used for xenograft tumor establishment. 22Rv1 tumor cells were subcutaneously inoculated on a side of a lower abdomen of each mouse, and each mouse was injected with 3×10^6 cells. […] When the tumor volumes reached about 100 mm^3, the mice were randomly divided into groups (n=6-7 per group) and then administered through oral gavage. […] The length (L) and width (W) of the tumor mass were measured by a caliper, and the volume was expressed in mm^3 and calculated according to the following formula: V=π/6×(L×W^2). TGI was calculated according to the following formula: TGI=[1−(T−T0)/(C−C0)]×100, where T denoted a mean tumor volume on a specific day of the experiment and T0 denoted a mean tumor volume at the beginning of the treatment; similarly, C and C0 denoted a mean tumor volume on a specific day of the experiment and a mean tumor volume of a blank group at the beginning of the treatment, respectively.
Data represented mean tumor volume standard deviation (n=6-7 per group) in each treatment group.

C4-2B = assay: Cell viability (Cell-Titer GLO), C4-2B; conditions: read-out: Cell Viability IC50 C4-2B
Protocol: (§1) Experimental method: 20 μL of a medium containing 500 to 1000 cells to be detected (the actual number of cells was related to cell cycle and cell volume) was plated into each well of the 384-well clear-bottom microplate. […] An inhibition curve was fitted by GraphPad Prism software, and IC50 was calculated.

22Rv1 = assay: Cell viability (Cell-Titer GLO), 22Rv1
Protocol: as §1

LNCaP = assay: Cell viability (Cell-Titer GLO), LNCaP
Protocol: as §1

FXR = biological target: T1, FXR (Homo sapiens, UniProt Q96RI1); assay: Gal4-LBD luciferase selectivity test, FXR
T1 sequence (Q96RI1 262-486 limits assumed): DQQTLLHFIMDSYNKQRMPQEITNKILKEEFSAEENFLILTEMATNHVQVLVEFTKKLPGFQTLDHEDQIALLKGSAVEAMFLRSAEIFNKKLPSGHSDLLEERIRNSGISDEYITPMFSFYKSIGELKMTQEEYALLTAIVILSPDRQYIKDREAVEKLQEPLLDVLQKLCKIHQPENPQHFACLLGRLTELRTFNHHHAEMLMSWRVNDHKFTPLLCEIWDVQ
Protocol: (§2) On the day before transfection, cells were prepared in the 96-well plate with a cell density of 1.5×10^4 cells/well. After 24 hours of adherent growth, transient transfection was performed with the transfection reagent Lipo-fectamine 2000 through a method of dual reporter gene co-transfection. The transfection reagent and the plasmids were separately diluted with the Opti-MEM Reagent. […] After 24 hours of incubation, the luciferase dual reporter gene detection assay kit was used for detecting luminescence signals. Three duplicate wells were set for each sample, and IC50 values (half maximal inhibitory concentrations) were calculated by software.

LXRα = biological target: T2, LXRα (Homo sapiens, UniProt Q13133); assay: Gal4-LBD luciferase selectivity test, LXRα
T2 sequence (Q13133 209-447 limits assumed): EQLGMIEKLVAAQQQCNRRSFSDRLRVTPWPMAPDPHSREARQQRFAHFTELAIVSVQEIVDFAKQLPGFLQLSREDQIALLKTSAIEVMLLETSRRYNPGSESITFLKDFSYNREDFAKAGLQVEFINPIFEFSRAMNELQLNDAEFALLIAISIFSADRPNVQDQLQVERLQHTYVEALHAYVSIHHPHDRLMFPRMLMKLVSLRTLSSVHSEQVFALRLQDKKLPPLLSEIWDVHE
Protocol: as §2

RORα = biological target: T3, RORα (Homo sapiens, UniProt P35398); assay: Gal4-LBD luciferase selectivity test, RORα
T3 sequence (P35398 272-510 limits assumed): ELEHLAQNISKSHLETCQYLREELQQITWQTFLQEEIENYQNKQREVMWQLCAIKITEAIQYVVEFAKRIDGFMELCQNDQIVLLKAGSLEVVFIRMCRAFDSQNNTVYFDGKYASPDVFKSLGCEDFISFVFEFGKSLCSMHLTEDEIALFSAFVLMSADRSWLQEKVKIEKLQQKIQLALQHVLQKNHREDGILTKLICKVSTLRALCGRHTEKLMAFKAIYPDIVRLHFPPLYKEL
Protocol: as §2

hRORγ = biological target: T4, hRORγ (Homo sapiens, UniProt P51449); assay: protein thermal stability shift assay (TSA); conditions: read-out: ΔTm (TSA detection technique), hRORγ 10 μM, compound 200 μM
T4 sequence (P51449 1-518): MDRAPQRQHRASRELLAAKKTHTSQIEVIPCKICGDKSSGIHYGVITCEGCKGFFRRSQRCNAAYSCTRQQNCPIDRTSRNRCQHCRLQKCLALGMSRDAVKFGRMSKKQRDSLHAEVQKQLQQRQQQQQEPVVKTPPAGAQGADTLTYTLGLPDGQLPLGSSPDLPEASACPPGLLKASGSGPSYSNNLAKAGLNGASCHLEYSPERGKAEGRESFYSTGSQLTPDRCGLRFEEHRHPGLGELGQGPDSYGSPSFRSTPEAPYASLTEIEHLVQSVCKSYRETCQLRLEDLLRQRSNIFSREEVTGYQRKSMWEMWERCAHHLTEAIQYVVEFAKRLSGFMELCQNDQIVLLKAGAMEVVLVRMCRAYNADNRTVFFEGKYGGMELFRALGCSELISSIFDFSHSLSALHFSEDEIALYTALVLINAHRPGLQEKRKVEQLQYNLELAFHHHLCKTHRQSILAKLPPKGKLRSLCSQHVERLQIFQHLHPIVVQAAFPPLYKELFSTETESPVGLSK

RORγ = biological target: T5, RORγ (Homo sapiens, UniProt P51449); assay: luciferase dual reporter gene assay, Gal4-RORγLBD in 293T cells; conditions: IC50 (luciferase detection technique), RORγ transcriptional activity, Table 1
T5 sequence (P51449 269-508 limits assumed): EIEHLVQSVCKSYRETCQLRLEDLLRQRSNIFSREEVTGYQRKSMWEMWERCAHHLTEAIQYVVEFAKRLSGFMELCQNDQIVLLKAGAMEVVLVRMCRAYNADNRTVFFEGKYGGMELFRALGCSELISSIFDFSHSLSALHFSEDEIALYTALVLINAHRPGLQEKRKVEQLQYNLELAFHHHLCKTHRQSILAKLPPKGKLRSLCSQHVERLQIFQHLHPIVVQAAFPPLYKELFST
Protocol: On the day before transfection, cells were prepared in the 96-well plate with a cell density of 1.5×10^4 cells/well. After 24 hours of adherent growth, transient transfection was performed with the transfection reagent Lipo-fectamine 2000 through a method of dual reporter gene co-transfection. The transfection reagent and the plasmids were separately diluted with the Opti-MEM Reagent. Gal4-RORγLBD (25 ng), pG5-luc genes (25 ng) and Renilla (5 ng) were added to each well, and after 24 hours of co-transfection, compounds having different concentrations were added. After 24 hours of incubation, the luciferase dual reporter gene detection assay kit was used for detecting luminescence signals. Three duplicate wells were set for each sample, and IC50 values (half maximal inhibitory concentrations) were calculated by software.

RORβ = biological target: T6, RORβ (Homo sapiens, UniProt Q92753); assay: Gal4-LBD luciferase selectivity test, RORβ
T6 sequence (Q92753 222-460 limits assumed): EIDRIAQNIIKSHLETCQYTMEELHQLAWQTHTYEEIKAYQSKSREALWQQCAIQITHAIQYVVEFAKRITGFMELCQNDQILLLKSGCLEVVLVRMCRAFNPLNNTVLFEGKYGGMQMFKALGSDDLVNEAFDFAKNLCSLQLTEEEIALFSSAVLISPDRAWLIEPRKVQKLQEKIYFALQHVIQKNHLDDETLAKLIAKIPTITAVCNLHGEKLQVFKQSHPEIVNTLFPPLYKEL
Protocol: as §2

Cmax ([1]; iv (5 mg/kg)): 18400 ng/mL
Structure (SMILES): CCS(=O)(=O)c1ccc(CC(=O)Nc2ccc(-c3nc4ccc(C(F)(F)F)cc4n3[C@H](C)c3ccc(F)cc3)cc2)cc1 [Example 67, (R)-2-(4-(ethylsulfonyl)phenyl)-N-(4-(1-(1-(4-fluorophenyl)ethyl)-6-(trifluoromethyl)-1H-benzo[d]imidazol-2-yl)phenyl)acetamide]

Structure (SMILES): CCS(=O)(=O)c1ccc(CC(=O)Nc2ccc(-c3nc4ccc(C(F)(F)F)cc4n3[C@@H](C)c3ccc(F)cc3)cc2)cc1 [Example 68, (S)-2-(4-(ethylsulfonyl)phenyl)-N-(4-(1-(1-(4-fluorophenyl)ethyl)-6-(trifluoromethyl)-1H-benzo[d]imidazol-2-yl)phenyl)acetamide]
Cmax ([1]; iv (5 mg/kg)): 14800 ng/mL | Cmax ([1]; po (25 mg/kg)): 5730 ng/mL | TGI (22Rv1 xenograft; 10 mg/kg oral): 83% | TGI (22Rv1 xenograft; 40 mg/kg oral): 109% | toxic effect (22Rv1 xenograft; 22Rv1 mouse xenograft models, all doses): without any apparent toxic effect | variations of weights of mice during administration (22Rv1 xenograft; all doses (10 and 40 mg/kg oral)): no apparent variations in weight

IC50 (22Rv1; read-out: Cell Viability IC50 22Rv1, 22Rv1, 72-96 h): 13.3 ± 1.22 µM | IC50 (LNCaP; read-out: Cell Viability IC50 LNCaP, 72-96 h): 6.14 ± 0.04 µM
Structure (SMILES): OC(c1ccc(-c2ccc(CN3CCN(Cc4ccncc4)CC3)cc2)c(F)c1)(C(F)(F)F)C(F)(F)F [SR2211, reference compound]
IC50 (C4-2B; C4-2B, 72-96 h): 5.38 ± 0.27 µM

IC50 (FXR): > 20 µM | IC50 (LXRα): > 20 µM | IC50 (22Rv1; Homo sapiens, 22Rv1, read-out: Cell Viability IC50 22Rv1): 10.4 ± 1.01 µM | IC50 (LNCaP; Homo sapiens, read-out: Cell Viability IC50 LNCaP): 5.2 ± 0.14 µM | IC50 (RORα): > 20 µM | ΔTm at 200 µM (hRORγ): < 5 °C | IC50 (RORγ): < 0.1 µM | IC50 (RORβ): > 20 µM
Structure (SMILES): CCS(=O)(=O)c1ccc(C(NC(C)=O)C(=O)Nc2ccc(-c3nc4ccc(C)cc4n3[C@@H](C)c3ccc(C)cc3)cc2)cc1 (single isomer, unassigned) [Example 74]
IC50 (C4-2B): 4.19 ± 0.34 µM

ΔTm at 200 µM (hRORγ): 5 to 10 °C | IC50 (RORγ): 0.1 to 1 µM
Structure (SMILES): CCS(=O)(=O)c1ccc(CC(=O)Nc2ccc(-c3nc4ccc(C)cc4s3)c(Cl)c2)cc1 [Example 29, N-(3-chloro-4-(6-methylbenzo[d]thiazol-2-yl)phenyl)-2-(4-(ethylsulfonyl)phenyl) acetamide]

ΔTm at 200 µM (hRORγ): < 5 °C | IC50 (RORγ): < 0.1 µM
Structure (SMILES): CCS(=O)(=O)c1ccc(CC(=O)Nc2ccc(-c3nc4ccc(Cl)cc4n3Cc3ccccc3)cc2)cc1 [Example 52]

ΔTm at 200 µM (hRORγ): < 5 °C | IC50 (RORγ): 0.1 to 1 µM
Structure (SMILES): CCS(=O)(=O)c1ccc(CC(=O)Nc2ccc(-c3nc4cc(Cl)c(Cl)cc4n3Cc3ccccc3)cc2)cc1 [Example 86, N-(4-(1-benzyl-5,6-dichloro-1H-benzo[d]imidazol-2-yl)phenyl)-2-(4-(ethylsulfonyl)phenyl)acetamide]
